According to publication PMC10220285, “Development of an assay pipeline for the discovery of novel small molecule inhibitors of human glutathione peroxidases GPX1 and GPX4” (Redox Biology, 2023):
Counter-ions that a name gives are not always drawn.

Tests used:
GPX1 [1] = target: T1, GPX1 (Homo sapiens, UniProt P07203); test: nanoDSF thermal stabilization, GPX1; assay type: binding; details: for GSH Binding (ΔTm) GPx1; shift in nanoDSF melting temperature / Tm GPX1 (nanoDSF): first or only inflection point; for thermal stabilization of GPX1: nanoDSF
T1 construct: made in house; host or cells: E. coli
T1 sequence (P07203 1-203): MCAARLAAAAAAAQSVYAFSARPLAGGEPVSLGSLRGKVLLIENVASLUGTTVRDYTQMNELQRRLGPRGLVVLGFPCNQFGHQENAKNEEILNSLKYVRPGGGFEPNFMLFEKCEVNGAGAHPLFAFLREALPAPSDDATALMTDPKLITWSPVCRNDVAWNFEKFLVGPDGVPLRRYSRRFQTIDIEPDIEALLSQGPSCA
Procedure: Thermal stabilization of enzyme ± DMSO or ± compound was carried out in a Prometheus NT.48 instrument (NanoTemper Technologies) with an excitation wavelength of 280 nm. Intrinsic fluorescence at 330 nm and 350 nm was monitored while heating. Capillaries were filled with ∼10 μL of a solution of GPX1/4 (1 mg/mL), ± small molecule (100 μM) or DMSO, in TES buffer and placed into the instrument. The capillaries were subjected to a temperature range from 30 to 90 °C at a ramp rate of 2 °C/min. The ratio of the recorded emission intensities (350nm/330 nm) were plotted as a function of temperature. This ratio and first derivatives were calculated using the NanoTemper software and were plotted using GraphPad Prism.

GPX1 [2] = target: T1, GPX1; test: GR-coupled GPX1 activity assay (NADPH fluorescence, CHP substrate); assay type: biochemical; details: for IC50: IC50 of resulting CRC, Table 2, read-out: IC50 GPx1; for inhibition of GPX1: Fig. 9 pan-selenoprotein inhibitors
Procedure: (§1) The compound plates were prepared as described previously. Purified recombinant human GPX1, GPX2, GPX4, GR, and TXNRD1 were produced and purified as previously reported [[48], [49], [50]]. As production of GPX2 was not optimized at the onset of screening, only GPX1 and GPX4 underwent library screening, and GPX2 was used as a follow-up.
(§2) Follow-up and orthogonal assays were run in quadruplicate unless otherwise stated. Assay schemes are illustrated in Fig. 1.
(§3) To measure GPX activity, assays were performed in 1536-well format in black medium-binding solid-bottom plates (Greiner). These assay conditions were optimized for high-throughput screening from an assay first described by Paglia and Valentine. GPX activity is measured indirectly by coupling the reaction with GR whereby GPX reduces hydroperoxide by oxidizing two GSH to GSSG and the oxidized glutathione is recycled to its reduced state by GR and NADPH (Fig. 1B). The rate of consumption of NADPH is directly proportional to the activity of GPX and can be measured by the decrease in fluorescence at 340 nm/450 nm.
(§4) First, 3 μL of enzyme in TES assay buffer (50 mM Tris-HCl, 2 mM EDTA (pH 7.5), 150 mM NaCl with enzyme [10 nM GPX1, 200 nM GPX4 ] and BSA [0.01%]) was added to columns 3–48 of 1536-well plates using a BioRAPTR Flying Reagent Dispenser (Let's Go Robotics (LGR), Carlsbad, CA). A no-enzyme control (0.01% BSA in TES assay buffer) was added to columns 1–2. Compounds (25 nL, library and DMSO controls) were added to each well with a pin tool (Kalypsys), and the plates were incubated for 30 min at room temperature before 1 μL of master mix (100 nM GR, 1 mM GSH, 0.5 mM NADPH in TES buffer) was added. 1 μL of cumene hydroperoxide (CHP) ([0.5 mM] in 50% EtOH) was then added within 5 min to initiate the reaction. Fluorescence at 340/450 nm was measured using a ViewLux multimodal detector (PerkinElmer, Waltham, MA) at initial t = 0 and endpoint t = 15 min (GPX1) or t = 20 min (GPX4).
(§5) Follow-up confirmation assays were also run in 96-well format using medium binding clear 96-well SpectraPlate microplates (PerkinElmer) and NADPH absorbance at 340 nm was measured every 30 s for 30 min using an Infinite® M Nano (Tecan).
(§6) Percent activity was determined by first calculating delta RFU (decrease in fluorescence between t = 0 and t = 20/30 min in primary GPX, GR counter-screen, and TXNRD1 assays, or increase in fluorescence between t = 0 and t = 20 min in the Monobromobimane GPX endpoint assay), and normalizing enzyme activity using median delta RFU values for DMSO-treated enzyme control, and DMSO-treated no-enzyme controls.
(§7) Compound inhibitory activity in the qHTS assays was determined by plotting dose-response data for each sample and fitting with a four-parameter logistic fit to assess IC50 values, efficacy (maximal response), and AUC (area under the curve), as previously described. Hits were classified by the quality of the concentration-response curves (CRC). Curve classes −1.1 and −1.2 being the highest-confidence actives with complete CRCs and classes −2.1 and −2.2 being lower-confidence actives with incomplete CRCs.

human GPX2 = target: T2, human GPX2 (Homo sapiens, UniProt P18283); test: GPX2 activity assay (follow-up isoform specificity); assay type: biochemical; details: for IC50: IC50 of resulting CRC, Table 2; for inhibition of GPX2: Fig. 9 pan-selenoprotein inhibitors
T2 construct: made in house
T2 sequence (P18283 1-190): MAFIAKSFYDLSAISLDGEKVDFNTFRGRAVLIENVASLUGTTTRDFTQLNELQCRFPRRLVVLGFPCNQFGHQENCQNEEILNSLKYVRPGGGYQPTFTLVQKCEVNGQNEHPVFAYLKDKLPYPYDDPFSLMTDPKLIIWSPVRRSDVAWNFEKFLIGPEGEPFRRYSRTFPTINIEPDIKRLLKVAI
Procedure: as §1, §2
Previous work has shown similarities in the substrate specificities of GPX1 and GPX2, and a more unique substrate profile of GPX4 [8].
The GPX2 isoform of human selenoprotein GPXs is found in epithelial cells and has similar substrate specificity with GPX1, but not as much with GPX4 [8]. Additionally, GPX1 and GPX2 both form homotetramers and share similarities in structural homology, although GPX2 has a much slower turnover rate.

[3] = target: T3, GR (glutathione reductase) (Homo sapiens, UniProt P00390); test: GR counter-assay; assay type: biochemical; details: Fig. 9 pan-selenoprotein inhibitors
T3 construct: made in house
T3 sequence (P00390 44-522): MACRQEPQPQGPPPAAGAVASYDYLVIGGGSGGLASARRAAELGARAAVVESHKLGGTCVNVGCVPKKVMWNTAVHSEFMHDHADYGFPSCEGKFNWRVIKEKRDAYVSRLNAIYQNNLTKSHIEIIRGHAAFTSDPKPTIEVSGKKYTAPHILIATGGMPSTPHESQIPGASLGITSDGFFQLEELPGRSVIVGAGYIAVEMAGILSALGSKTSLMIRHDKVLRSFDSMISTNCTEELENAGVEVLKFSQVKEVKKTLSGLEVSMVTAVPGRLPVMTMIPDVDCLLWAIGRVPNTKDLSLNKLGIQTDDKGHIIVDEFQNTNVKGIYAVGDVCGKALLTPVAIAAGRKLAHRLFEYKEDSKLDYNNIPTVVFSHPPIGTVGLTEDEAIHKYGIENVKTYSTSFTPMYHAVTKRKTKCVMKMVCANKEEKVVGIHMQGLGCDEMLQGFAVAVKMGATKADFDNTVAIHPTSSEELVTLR
Procedure: as §1, §2
To identify false positive compounds that interfere with the primary assay through inhibition of GR, ‘hits’ from the primary screening were run against a GR counter assay to identify this possible off-target inhibition (Fig. 1C). Briefly, 3 μL enzyme mixture (100 nM GR, 0.01% BSA in TES buffer) was dispensed into columns […] of a 1536-well black medium-binding solid-bottom plates. The no-enzyme control (0.01% BSA in TES buffer) was included in column 1 and 2. Compounds and controls (23 nL) were added to each well with a pin tool (Kalypsys), and the plates were incubated for 30 min before 2 μL of substrate mixture (1 mM GSSG 0.4 mM NADPH in TES buffer) was added to each well and absorbance at 340 nm was measured at t = 0 and t = 20 min using a ViewLux Multimodal detector (PerkinElmer).
as §6, §7

GPX4 = target: T4, GPX4 (Homo sapiens, UniProt P36969); test: GR-coupled GPX4 activity assay (NADPH fluorescence, CHP substrate); assay type: biochemical; details: Fig. 9 pan-selenoprotein inhibitors
T4 construct: made in house; host or cells: E. coli
T4 sequence (P36969 1-170 isoform P36969-2): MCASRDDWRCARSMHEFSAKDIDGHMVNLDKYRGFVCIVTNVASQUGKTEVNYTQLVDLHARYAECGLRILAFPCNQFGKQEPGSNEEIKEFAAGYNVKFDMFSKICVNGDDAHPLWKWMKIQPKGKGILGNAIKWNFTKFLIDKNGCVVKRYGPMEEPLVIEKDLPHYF
Procedure: as §1, §2, §3, §4, §5, §6, §7

human TXNRD1 = target: T5, human TXNRD1 (Homo sapiens, UniProt Q16881); test: Thioredoxin reductase 1 (TXNRD1) inhibition assay (selenite reduction); assay type: biochemical; details: Fig. 9 pan-selenoprotein inhibitors
T5 construct: made in house
T5 sequence (Q16881 1-499 isoform Q16881-5): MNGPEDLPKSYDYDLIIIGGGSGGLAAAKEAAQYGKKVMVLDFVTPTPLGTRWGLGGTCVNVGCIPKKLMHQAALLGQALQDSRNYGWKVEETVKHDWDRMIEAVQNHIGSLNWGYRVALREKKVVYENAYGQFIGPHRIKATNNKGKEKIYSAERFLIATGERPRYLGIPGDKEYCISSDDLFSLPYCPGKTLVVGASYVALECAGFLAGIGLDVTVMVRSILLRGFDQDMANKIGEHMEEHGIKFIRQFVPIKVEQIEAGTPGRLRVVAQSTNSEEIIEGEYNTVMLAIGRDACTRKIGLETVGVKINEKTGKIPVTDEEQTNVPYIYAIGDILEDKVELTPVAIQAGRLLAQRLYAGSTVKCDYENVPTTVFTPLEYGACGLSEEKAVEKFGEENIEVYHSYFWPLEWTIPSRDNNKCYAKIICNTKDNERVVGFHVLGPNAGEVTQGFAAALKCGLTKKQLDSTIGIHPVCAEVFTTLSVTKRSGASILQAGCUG
Procedure: as §1, §2
TXNRD1 activity was assessed using a modified 1536-well TXNRD1 inhibition assay, based upon TXNRD1-catalyzed selenite reduction as previously described (Fig. 1D). […] TE buffer was dispensed into column 1 and 2 as a no-enzyme control. Finally, 1 μL of sodium selenite in TE buffer was dispensed into each well for final concentrations of 90 nM hTXNRD1, 0.4 mM NADPH, and 0.4 mM sodium selenite. The plate was read in a Viewlux multimodal detector in kinetic mode and fluorescence at 340 nm/450 nm was measured every minute for 8 min.
as §6, §7

[4] = 100 μM small molecule vs DMSO control

SMILES | GSH Binding (ΔTm) GPx1; shift in nanoDSF melting temperature (GPX1 [1]; [4]) | Tm GPX1 (nanoDSF) (GPX1 [1]; 100 μM, DMSO control Tm 42.5°C) | thermal stabilization of GPX1 (GPX1 [1]) | IC50 (GPX1 [2]) | IC50 (human GPX2) | GSH Binding (ΔTm) GPx1; shift in nanoDSF melting temperature, second inflection point (GPX1 [1]; 100 μM small molecule vs DMSO control, second inflection point) | Tm GPX1 (nanoDSF), second inflection point (GPX1 [1]; 100 μM, DMSO control Tm 42.5°C) | inhibition of GR [3] | inhibition of GPX1 (GPX1 [2]) | inhibition of GPX4 (GPX4) | inhibition of GPX2 (human GPX2) | inhibition of TXNRD1 (human TXNRD1)
CO[C@@]1(NC(=O)Cc2cccs2)C(=O)N2C(C(=O)O)=C(COC(N)=O)CS[C@@H]21 [Cefoxitin sodium salt] | +0.4 °C | 42.9 °C | did not show any thermal stabilization | 9.3 µM | > 20 µM | – | – | – | – | – | – | –
Nc1nc(/C(=C/CC(=O)O)C(=O)N[C@@H]2C(=O)N3C(C(=O)O)=CCS[C@H]23)cs1 [Ceftibuten] | -0.2 °C | 42.3 °C | did not show any thermal stabilization | 18.5 µM | 10 µM | – | – | – | – | – | – | –
O=C(N[C@H]1CCS[C@H]2CCC[C@@H](C(=O)O)N2C1=O)[C@@H](S)Cc1ccccc1 [Omapatrilat] | +6.3 °C | 48.8 °C | significant shifts in the melting temperature of GPX1 | 5.7 µM | 4.7 µM | +12.8 °C | 55.3 °C | – | – | – | – | –
Cc1ccc(NC(=O)N2CCN(c3nc(N)nc4sc(-c5cccnc5)nc34)CC2)cc1 [PI4KIII beta inhibitor 3] | – | – | – | – | – | – | – | not GR | inhibited all tested selenoproteins | inhibited all tested selenoproteins | inhibited all tested selenoproteins | inhibited all tested selenoproteins
CC(OC(=O)OC1CCCCC1)OC(=O)C1=C(CSc2nnnn2CCN(C)C)CS[C@@H]2[C@H](NC(=O)Cc3csc(N)n3)C(=O)N12 (stereo partly shown) [SCE-2174] | – | – | – | – | – | – | – | not GR | inhibited all tested selenoproteins | inhibited all tested selenoproteins | inhibited all tested selenoproteins | inhibited all tested selenoproteins
COc1ccc2[nH]c([S+]([O-])Cc3ncc(C)c(OC)c3C)nc2n1 (stereo not shown) [Tenatoprazole] | +7.5 °C | 50.0 °C | significant shifts in the melting temperature of GPX1 | 8.9 µM | 7.7 µM | – | – | – | – | – | – | –
CO[C@@]1(NC(=O)C2SC(=C(C(N)=O)C(=O)O)S2)C(=O)N2C(C(=O)O)=C(CSc3nnnn3C)CS[C@@H]21 (stereo partly shown) [cefotetan sodium] | – | – | – | – | – | – | – | not GR | inhibited all tested selenoproteins | inhibited all tested selenoproteins | inhibited all tested selenoproteins | inhibited all tested selenoproteins
